According to patent US10329294B2, “Pyrazolopyrimidine inhibitors of IRAK4 activity” (MERCK SHARP & DOHME CORP., priority 2015, dated 2019):
pIC50: −log10 of the molar value. Where a name gives a salt, the structure may show the parent alone. Read-outs that look alike come from different tables or passages of the source.

Biological target: IRAK4 (Homo sapiens (Human), UniProt Q9NWZ3)
Test: IRAK4 Kinase Assay
Type: biochemical
Settings: IMAP fluorescence polarization, 0.5 nM GST tagged IRAK4, 100 μM ATP, 30 minutes at 25° C.; for pIC50: read-out: IRAK4 IC50; for IC50: IRAK4 IC50 (nM)

Sequence of IRAK4 (Q9NWZ3 whole entry): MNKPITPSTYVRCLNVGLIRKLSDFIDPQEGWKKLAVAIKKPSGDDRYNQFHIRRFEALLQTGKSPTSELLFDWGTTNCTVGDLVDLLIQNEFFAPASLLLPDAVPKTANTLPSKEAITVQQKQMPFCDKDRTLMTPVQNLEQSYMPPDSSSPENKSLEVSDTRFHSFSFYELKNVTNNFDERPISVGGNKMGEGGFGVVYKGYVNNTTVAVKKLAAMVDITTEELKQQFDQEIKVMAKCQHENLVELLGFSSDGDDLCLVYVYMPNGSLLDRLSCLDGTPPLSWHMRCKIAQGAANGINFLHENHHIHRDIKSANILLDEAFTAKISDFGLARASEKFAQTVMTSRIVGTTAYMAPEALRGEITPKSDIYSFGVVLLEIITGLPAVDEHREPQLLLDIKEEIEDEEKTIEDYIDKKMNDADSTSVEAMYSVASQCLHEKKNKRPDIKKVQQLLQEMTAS

Work on `O=C(Nc1cscc1Cl)c1cnn2ccc(N3C[C@@H]4CC[C@H]3CN4)nc12` (single isomer, unassigned) [Example 169, N-(4-chlorothiophen-3-yl)-5-[(1S,4S)- or (1R,4R)-2,5-diazabicyclo[2.2.2]oct-2-yl]pyrazolo[1,5-a]pyrimidine-3-carboxamide trifluoroacetate] yielded a pIC50 of 6.82.

`O=C(Nc1cscc1Cl)c1cnn2ccc(N3C[C@H]4CC[C@@H]3CN4)nc12` (single isomer, unassigned) [Example 171, N-(4-chlorothiophen-3-yl)-5-[(1S,4S)- or (1R,4R)-2,5-diazabicyclo[2.2.2]oct-2-yl]pyrazolo[1,5-a]pyrimidine-3-carboxamide trifluoroacetate] showed a pIC50 of 6.42.

For `Cn1cc(NC(=O)c2cnn3ccc(N4CC[C@@H](F)[C@@H](N)C4)nc23)c(C(F)F)n1` (single isomer, unassigned) [Example 178, 5-[(3S,4R)- or (3R,4S)-3-amino-4-fluoropiperidin-1-yl]-N-[3-(difluoromethyl)-1-methyl-1H-pyrazol-4-yl]pyrazolo[1,5-a]pyrimidine-3-carboxamide trifluoroacetate], the pIC50 was 8.40.

With `Cn1cc(NC(=O)c2cnn3ccc(N4CC[C@H](F)[C@H](N)C4)nc23)c(C(F)F)n1` (single isomer, unassigned) [Example 179, 5-[(3S,4R)- or (3R,4S)-3-amino-4-fluoropiperidin-1-yl]-N-[3-(difluoromethyl)-1-methyl-1H-pyrazol-4-yl]pyrazolo[1,5-a]pyrimidine-3-carboxamide trifluoroacetate] the pIC50 was 9.30.

Work on `Cn1cc(NC(=O)c2cnn3ccc(N4C[C@@H]5CN[C@@H](C5)C4)nc23)c(C(F)F)n1` (single isomer, unassigned) [Example 183, 5-[(1S,5S)- or (1R,5R)-3,6-diazabicyclo[3.2.1]oct-3-yl]-N-[3-(difluoromethyl)-1-methyl-1H-pyrazol-4-yl]pyrazolo[1,5-a]pyrimidine-3-carboxamide trifluoroacetate] yielded a pIC50 of 8.22.

Compound `Cn1cc(NC(=O)c2cnn3ccc(N4C[C@H]5CN[C@H](C5)C4)nc23)c(C(F)F)n1` (single isomer, unassigned) [Example 184, 5-[(1S,5S)- or (1R,5R)-3,6-diazabicyclo[3.2.1]oct-3-yl]-N-[3-(difluoromethyl)-1-methyl-1H-pyrazol-4-yl]pyrazolo[1,5-a]pyrimidine-3-carboxamide trifluoroacetate] has a pIC50 of 7.33.

`Cn1cc(NC(=O)c2cnn3ccc(N4CCC(F)(F)[C@@H](N)C4)nc23)c(C(F)(F)F)n1` (single isomer, unassigned) [Example 188, 5-[(4R)- or (4S)-(3-amino-4,4-difluoropiperidin-1-yl)-N-[1-methyl-3-(trifluoromethyl)-1H-pyrazol-4-yl]pyrazolo[1,5-a]pyrimidine-3-carboxamide trifluoroacetate] gave a pIC50 of 7.22.

With `Cn1cc(NC(=O)c2cnn3ccc(N4CCC(F)(F)[C@@H](N)C4)nc23)c(C(F)F)n1` (single isomer, unassigned) [Example 189, 5-[(4R)- or (4S)-(3-amino-4,4-difluoropiperidin-1-yl)-N-[3-(difluoromethyl)-1-methyl-1H-pyrazol-4-yl]pyrazolo[1,5-a]pyrimidine-3-carboxamide trifluoroacetate] the pIC50 was 8.70.

For `Cn1cc(NC(=O)c2cnn3ccc(N4CCC(F)(F)[C@H](N)C4)nc23)c(C(F)(F)F)n1` (single isomer, unassigned) [Example 192, 5-[(4R)- or (4S)-(3-amino-4,4-difluoropiperidin-1-yl)-N-[1-methyl-3-(trifluoroemthyl)-1H-pyrazol-4-yl]pyrazolo[1,5-a]pyrimidine-3-carboxamide trifluoroacetate], the pIC50 was 7.64.

`Cn1cc(NC(=O)c2cnn3ccc(N4CCC(F)(F)[C@H](N)C4)nc23)c(C(F)F)n1` (single isomer, unassigned) [Example 193, 5-[(4R)- or (4S)-(3-amino-4,4-difluoropiperidin-1-yl)-N-[3-(difluoromethyl)-1-methyl-1H-pyrazol-4-yl]pyrazolo[1,5-a]pyrimidine-3-carboxamide trifluoroacetate] was tested, and the pIC50 was 8.70.

`Cn1cc(NC(=O)c2cnn3ccc(N[C@@H]4CCCC(O)[C@@H]4N)nc23)c(C(F)(F)F)n1` (single isomer, unassigned) [Example 201, 5-{[(1R,2R)- or (1S,2S)-2-amino-3-hydroxycyclohexyl]amino}-N-[1-methyl-3-(trifluoromethyl)-1H-pyrazol-4-yl]pyrazolo[1,5-a]pyrimidine-3-carboxamide] was tested, and the IC50 was 4 nM.

With `Cn1cc(NC(=O)c2cnn3ccc(N[C@H]4C(O)CCC[C@H]4N)nc23)c(C(F)(F)F)n1` (single isomer, unassigned) [Example 202, 5-{[(1R,2R)- or (1S,2S)-2-amino-6-hydroxycyclohexyl]amino}-N-[1-methyl-3-(trifluoromethyl)-1H-pyrazol-4-yl]pyrazolo[1,5-a]pyrimidine-3-carboxamide] the pIC50 was 8.40.

`Cn1cc(NC(=O)c2cnn3ccc(N[C@@H]4CCCC(F)[C@@H]4N)nc23)c(C(F)(F)F)n1` (single isomer, unassigned) [Example 203, 5-{[(1R,2R)- or (1S,2S)-2-amino-3-fluorocyclohexyl]amino}-N-[1-methyl-3-(trifluoromethyl)-1H-pyrazol-4-yl]pyrazolo[1,5-a]pyrimidine-3-carboxamide] was tested, and the pIC50 was 8.15.

In the case of `Cn1cc(NC(=O)c2cnn3ccc(N[C@H]4CC(F)(F)CC[C@H]4N)nc23)c(C(F)F)n1` (single isomer, unassigned) [Example 208, 5-{[(1S,2R)- or (1R,2S)-2-amino-5,5-difluorocyclohexyl]amino}-N-[3-(difluoromethyl)-1-methyl-1H-pyrazol-4-yl]pyrazolo[1,5-a]pyrimidine-3-carboxamide], the IC50 was 38 nM.

For `Cn1cc(NC(=O)c2cnn3ccc(N[C@H]4CCC(F)(F)C[C@H]4N)nc23)c(C(F)F)n1` (single isomer, unassigned) [Example 209, 5-{[(1S,2R)- or (1R,2S)-2-amino-4,4-difluorocyclohexyl]amino}-N-[3-(difluoromethyl)-1-methyl-1H-pyrazol-4-yl]pyrazolo[1,5-a]pyrimidine-3-carboxamide], the pIC50 was 9.00.

Work on `Cn1cc(NC(=O)c2cnn3ccc(N[C@H]4CC(F)(F)CC[C@H]4N)nc23)c(C(F)F)n1` (single isomer, unassigned) [Example 210, 5-{[(1S,2R)- or (1R,2S)-2-amino-5,5-difluorocyclohexyl]amino}-N-[3-(difluoromethyl)-1-methyl-1H-pyrazol-4-yl]pyrazolo[1,5-a]pyrimidine-3-carboxamide] yielded a pIC50 of 9.00.

`Cn1cc(NC(=O)c2cnn3ccc(N[C@@H]4CCC(F)(F)C[C@@H]4N)nc23)c(C(F)F)n1` (single isomer, unassigned) [Example 211, 5-{[(1S,2R)- or (1R,2S)-2-amino-4,4-difluorocyclohexyl]amino}-N-[3-(difluoromethyl)-1-methyl-1H-pyrazol-4-yl]pyrazolo[1,5-a]pyrimidine-3-carboxamide] was tested, and the pIC50 was 7.57.

For `Cn1cc(NC(=O)c2cnn3ccc(N[C@@H]4CNCC(F)(F)C4)nc23)c(C(F)(F)F)n1` (single isomer, unassigned) [Example 218, 5-{[(3S)- or (3R)-5,5-difluoropiperidin-3-yl]amino}-N-[1-methyl-3-(trifluoromethyl)-1H-pyrazol-4-yl]pyrazolo[1,5-a]pyrimidine-3-carboxamide], the pIC50 was 6.16.

`Cn1cc(NC(=O)c2cnn3ccc(N[C@H]4CNCC(F)(F)C4)nc23)c(C(F)(F)F)n1` (single isomer, unassigned) [Example 219, 5-{[(3S)- or (3R)-5,5-difluoropiperidin-3-yl]amino}-N-[1-methyl-3-(trifluoromethyl)-1H-pyrazol-4-yl]pyrazolo[1,5-a]pyrimidine-3-carboxamide] was tested, and the pIC50 was 8.15.

In the case of `Cn1cc(NC(=O)c2cnn3ccc(N4[C@@H]5CCNC[C@H]4CC5)nc23)c(C(F)(F)F)n1` (single isomer, unassigned) [Example 221, 5-[(1R,6S)- or (1S,6R)-3,9-diazabicyclo[4.2.1]non-9-yl]-N-[1-methyl-3-(trifluoromethyl)-1H-pyrazol-4-yl]pyrazolo[1,5-a]pyrimidine-3-carboxamide trifluoroacetate], the pIC50 was 6.48.

With `Cn1cc(NC(=O)c2cnn3ccc(N4[C@H]5CCNC[C@@H]4CC5)nc23)c(C(F)(F)F)n1` (single isomer, unassigned) [Example 222, 5-[(1R,6S)- or (1S,6R)-3,9-diazabicyclo[4.2.1]non-9-yl]-N-[1-methyl-3-(trifluoromethyl)-1H-pyrazol-4-yl]pyrazolo[1,5-a]pyrimidine-3-carboxamide trifluoroacetate] the pIC50 was 6.77.

`Cn1cc(NC(=O)c2cnn3ccc(N4C[C@@H]5CN[C@@H](C5)C4)nc23)c(C(F)(F)F)n1` (single isomer, unassigned) [Example 224, 5-[(1S,5S)- or (1R,5R)-3,6-diazabicyclo[3.2.1]oct-3-yl]-N-[1-methyl-3-(trifluoromethyl)-1H-pyrazol-4-yl]pyrazolo[1,5-a]pyrimidine-3-carboxamide] was tested, and the pIC50 was 7.15.

`Cn1cc(NC(=O)c2cnn3ccc(N4C[C@H]5CN[C@H](C5)C4)nc23)c(C(F)(F)F)n1` (single isomer, unassigned) [Example 225, 5-[(1S,5S)- or (1R,5R)-3,6-diazabicyclo[3.2.1]oct-3-yl]-N-[1-methyl-3-(trifluoromethyl)-1H-pyrazol-4-yl]pyrazolo[1,5-a]pyrimidine-3-carboxamide] was tested, and the pIC50 was 6.51.

`Cn1cc(NC(=O)c2cnn3ccc(N[C@@H]4CNCC(F)(F)C4)nc23)c(C(F)F)n1` (single isomer, unassigned) [Example 228, N-[3-(difluoromethyl)-1-methyl-1H-pyrazol-4-yl]-5-{[(3S)- or (3R)-5,5-difluoropiperidin-3-yl]amino}pyrazolo[1,5-a]pyrimidine-3-carboxamide] showed a pIC50 of 7.23.
